Test results: patent US20240239755A1, “SUBSTITUTED PYRIDAZINONES, SALTS OR N-OXIDES THEREOF AND THEIR USE AS HERBICIDALLY ACTIVE SUBSTANCES” (Bayer Aktiengesellschaft, priority 2021, published 2024)

Key:
Type in all cases: in vivo
[1] = tested on: Matricaria inodora (MATIN); assay: Herbicidal pre-emergence action, 1280 g/ha (Table A6); details: visual grading after ca. 3 weeks vs untreated controls
Excerpt: (§1) Seeds of mono- and dicotyledonous weed plants were sown in plastic pots (double sowings with one species of mono- and one species of dicotyledonous weed plants per pot), in sandy loam, and covered with soil. The compounds according to the invention, formulated in the form of wettable powders (WP) or as emulsifiable concentrates (EC), were applied to the surface of the covering soil as an aqueous suspension or as an emulsion, with the addition of 0.5% of an additive, at an application rate of 600 litres of water per hectare (converted). Following treatment, the pots were placed in a greenhouse and kept under optimum growth conditions for the test plants. The visual grading of the damage to the test plants was carried out after ca. 3 weeks in comparison to untreated controls (herbicidal effect in percent (%): 100% effect=plants have died, 0% effect=as control plants). Tables A1 to A11 below, show the effects of selected compounds of the general formula (I) according to Table 1 on various harmful plants and an application rate corresponding to 1280 g/ha obtained by the experimental procedure mentioned above.

Lolium rigidum (LOLRI) [2] = assay: Herbicidal post-emergence action, 1280 g/ha (Table B5); details: visual assessment after ca. 3 weeks vs untreated controls
Excerpt: (§2) Seeds of mono- and dicotyledonous weed plants were sown in plastic pots (double sowings with one species of mono- and one species of dicotyledonous weed plants per pot), in sandy loam, covered with soil and grown under controlled growth conditions. 2 to 3 weeks after sowing, the test plants were sprayed in the single-leaf stage. The compounds according to the invention, formulated in the form of wettable powders (WP) or as emulsifiable concentrates (EC), were sprayed onto the green plant parts as an aqueous suspension or as an emulsion, with the addition of 0.5% of an additive, at an application rate of 600 litres of water per hectare (converted). The test plants were placed in the greenhouse for ca. 3 weeks under optimum growth conditions, and then the effect of the preparations was assessed visually in comparison with untreated controls (herbicidal effect in percent (%): 100% effect=plants have died, 0% effect=as control plants). Tables B1 to B11 below, show the effects of selected compounds of the general formula (I) according to Table 1 on various harmful plants using an application rate corresponding to 1280 g/ha obtained by the experimental procedure mentioned above.

[3] = tested on: Abutilon theophrasti (ABUTH); assay: Herbicidal post-emergence action, 320 g/ha, ABUTH; details: visual grading after ca. 3 weeks
Excerpt: as §2, with “plants).” for “plants). Tables B1 to B11 below, show the effects of selected compounds of the general formula (I) according to Table 1 on various harmful plants using an application rate corresponding to 1280 g/ha obtained by the experimental procedure mentioned above.”
(§3) Tables D1 to D8 below, show the effects of selected compounds of the general formula (I) according to Table 1 on various harmful plants using an application rate corresponding to 320 g/ha obtained by the experimental procedure mentioned above.

Stellaria media (STEME) [4] = assay: Herbicidal post-emergence action, 320 g/ha, STEME; details: visual grading after ca. 3 weeks
Excerpt: as §2, with “plants).” for “plants). Tables B1 to B11 below, show the effects of selected compounds of the general formula (I) according to Table 1 on various harmful plants using an application rate corresponding to 1280 g/ha obtained by the experimental procedure mentioned above.”
as §3

[5] = tested on: Amaranthus retroflexus (AMARE); assay: Herbicidal post-emergence action, 1280 g/ha, AMARE; details: visual grading vs untreated controls
Excerpt: as §2, with “plants).” for “plants). Tables B1 to B11 below, show the effects of selected compounds of the general formula (I) according to Table 1 on various harmful plants using an application rate corresponding to 1280 g/ha obtained by the experimental procedure mentioned above.”
(§4) Tables B1 to B11 below, show the effects of selected compounds of the general formula (I) according to Table 1 on various harmful plants using an application rate corresponding to 1280 g/ha obtained by the experimental procedure mentioned above.

[6] = tested on: Matricaria inodora (MATIN); assay: Herbicidal post-emergence action, 320 g/ha, MATIN; details: visual grading after ca. 3 weeks
Excerpt: as §2, with “plants).” for “plants). Tables B1 to B11 below, show the effects of selected compounds of the general formula (I) according to Table 1 on various harmful plants using an application rate corresponding to 1280 g/ha obtained by the experimental procedure mentioned above.”
as §3

Lolium rigidum (LOLRI) [7] = assay: Herbicidal post-emergence action, 320 g/ha, LOLRI; details: visual grading after ca. 3 weeks
Excerpt: as §2, with “plants).” for “plants). Tables B1 to B11 below, show the effects of selected compounds of the general formula (I) according to Table 1 on various harmful plants using an application rate corresponding to 1280 g/ha obtained by the experimental procedure mentioned above.”
as §3

[8] = tested on: Matricaria inodora (MATIN); assay: Herbicidal post-emergence action, 1280 g/ha (Table B6); details: visual assessment after ca. 3 weeks vs untreated controls
Excerpt: as §2

[9] = tested on: Amaranthus retroflexus (AMARE); assay: Herbicidal post-emergence action, 320 g/ha, AMARE; details: visual grading after ca. 3 weeks
Excerpt: as §2, with “plants).” for “plants). Tables B1 to B11 below, show the effects of selected compounds of the general formula (I) according to Table 1 on various harmful plants using an application rate corresponding to 1280 g/ha obtained by the experimental procedure mentioned above.”
as §3

Stellaria media (STEME) [10] = assay: Herbicidal post-emergence action, 1280 g/ha (Table B9); details: visual assessment after ca. 3 weeks vs untreated controls
Excerpt: as §2

Stellaria media (STEME) [11] = assay: Herbicidal pre-emergence action, 1280 g/ha (Table A9); details: visual grading after ca. 3 weeks vs untreated controls
Excerpt: as §1

Veronica persica (VERPE) [12] = assay: Herbicidal post-emergence action, 1280 g/ha, VERPE; details: visual grading vs untreated controls
Excerpt: as §2, with “plants).” for “plants). Tables B1 to B11 below, show the effects of selected compounds of the general formula (I) according to Table 1 on various harmful plants using an application rate corresponding to 1280 g/ha obtained by the experimental procedure mentioned above.”
as §4

Lolium rigidum (LOLRI) [13] = assay: Herbicidal pre-emergence action, 1280 g/ha (Table A5); details: visual grading after ca. 3 weeks vs untreated controls
Excerpt: as §1

[14] = tested on: Abutilon theophrasti (ABUTH); assay: Herbicidal post-emergence action, 1280 g/ha (Table B1); details: visual assessment after ca. 3 weeks vs untreated controls
Excerpt: as §2

Kochia scoparia (KCHSC) [15] = assay: Herbicidal post-emergence action, 1280 g/ha (Table B4); details: visual assessment after ca. 3 weeks vs untreated controls
Excerpt: as §2

Veronica persica (VERPE) [16] = assay: Herbicidal post-emergence action, 320 g/ha, VERPE; details: visual grading after ca. 3 weeks
Excerpt: as §2, with “plants).” for “plants). Tables B1 to B11 below, show the effects of selected compounds of the general formula (I) according to Table 1 on various harmful plants using an application rate corresponding to 1280 g/ha obtained by the experimental procedure mentioned above.”
as §3

Kochia scoparia (KCHSC) [17] = assay: Herbicidal pre-emergence action, 1280 g/ha (Table A4); details: visual grading after ca. 3 weeks vs untreated controls
Excerpt: as §1

Kochia scoparia (KCHSC) [18] = assay: Herbicidal post-emergence action, 320 g/ha, KCHSC; details: visual grading after ca. 3 weeks
Excerpt: as §2, with “plants).” for “plants). Tables B1 to B11 below, show the effects of selected compounds of the general formula (I) according to Table 1 on various harmful plants using an application rate corresponding to 1280 g/ha obtained by the experimental procedure mentioned above.”
as §3

| Structure (SMILES) | herbicidal effect MATIN [1] [%] | herbicidal effect LOLRI (Lolium rigidum (LOLRI) [2]) [%] | herbicidal effect ABUTH [3] [%] | herbicidal effect STEME (Stellaria media (STEME) [4]) [%] | herbicidal effect AMARE [5] [%] | herbicidal effect MATIN [6] [%] | herbicidal effect LOLRI (Lolium rigidum (LOLRI) [7]) [%] | herbicidal effect MATIN [8] [%] | herbicidal effect AMARE [9] [%] | herbicidal effect STEME (Stellaria media (STEME) [10]) [%] | herbicidal effect STEME (Stellaria media (STEME) [11]) [%] | herbicidal effect VERPE (Veronica persica (VERPE) [12]) [%] | herbicidal effect LOLRI (Lolium rigidum (LOLRI) [13]) [%] | herbicidal effect ABUTH [14] [%] | herbicidal effect KCHSC (Kochia scoparia (KCHSC) [15]) [%] | herbicidal effect VERPE (Veronica persica (VERPE) [16]) [%] | herbicidal effect KCHSC (Kochia scoparia (KCHSC) [17]) [%] | herbicidal effect KCHSC (Kochia scoparia (KCHSC) [18]) [%] |
| --- | --- | --- | --- | --- | --- | --- | --- | --- | --- | --- | --- | --- | --- | --- | --- | --- | --- | --- |
| CC(=O)Oc1c(C)nn(C)c(=O)c1Oc1ccccc1OC(F)F [Example I-081] | 90 | 90 | 90 | 90 | 100 | 90 | 90 | 100 | 90 | 90 | 90 | 100 | 90 | 100 | 100 |  |  |  |
| CCOC(=O)Oc1c(C)nn(C)c(=O)c1Oc1c(F)cccc1C1CC1 [Example I-085] |  | 100 | 90 | 100 | 100 |  | 90 | 100 | 90 | 100 | 90 | 100 | 100 | 100 | 100 | 90 |  |  |
| Cc1ccccc1Oc1c(O)c(C)nn(C)c1=O [Example I-017] |  |  | 90 |  | 90 |  |  |  | 90 |  |  | 90 |  | 90 | 100 | 90 |  |  |
| CCOC(=O)Oc1c(C)nn(C)c(=O)c1Oc1cccc(F)c1C1CC1 [Example I-058] |  | 100 | 90 | 90 | 90 |  | 90 | 100 | 90 | 90 | 90 | 90 | 90 | 100 | 100 |  | 90 | 90 |
| Cc1nn(C)c(=O)c(Oc2cc(F)c(F)cc2Br)c1O [Example I-087] |  |  |  |  | 100 | 90 |  | 100 | 90 |  |  | 90 | 90 | 100 | 100 | 90 |  | 90 |
